# Values quoted from earlier work, collected in patent publication US10813877B2, “Oral care products and methods” (MGE HOLDINGS LLC, priority 2016, dated 2020).
# Test system: cells
# Settings: ex vivo
compound,measurement,value
[H]/N=C(\N/C(=N/[H])NCCCCCCNC(=N)NC(=N)Nc1ccc(Cl)cc1)Nc1ccc(Cl)cc1 [chlorhexidine],cytotoxic effect on cells,cytotoxic effect
